Experiments:
CFTR-ΔF508 [1] = assay: CFTR-ΔF508 mRNA and protein in primary cultures of CF airway epithelia; assay type: cell-based, human
Protocol: (§1) Airway epithelia from human trachea and primary bronchus removed from organs donated for research were cultured at the air-liquid interface (ALI) (Karp, P. H. et al. An in vitro model of differentiated human airway epithelia. Methods for establishing primary cultures. Methods Mol. Biol. 188, 115-137 (2002)). These studies were approved by the Institutional Review Board of the University of Iowa. Briefly, airway epithelial cells were dissociated from native tissue by pronase enzyme digestion. Permeable membrane inserts (0.6 cm^2 Millipore-PCF, 0.33 cm^2 Costar-Polyester) pre-coated with human placental collagen (IV, Sigma) were seeded with freshly dissociated epithelia. […]
First-strand cDNA was synthesized using SuperScript® II (Invitrogen), and oligo-dT and random-hexamer primers. […] To quantitate miRNAs, TaqMan® microRNA Assays (Applied Biosystems) were obtained for miR-138, RNU48 (control) and 8 other miRNAs (negative control, miRs-21, -24, -26a, -200c, -146a, -146b, -27a*, -134). […] All experiments were performed in quadruplicate. mRNA and miRNA quantification in cell lines represents 8 independent transfections in 4 separate experiments. mRNA quantification in human primary airway epithelial cultures represent 8 independent transfections in 8 non-CF donors and 4 CF donors. […]

CFTR-ΔF508 [2] = assay: CFTR-mediated Cl^− transport (transepithelial current) in primary CF airway epithelia; assay type: cell-based, human; settings: multiple donors, oligonucleotide transfection, F&I then GlyH-101
Protocol: FIG. 27. […] Change in It following F&I+PG-01 treatment of primary CF airway epithelial cells (homozygous for ΔF508-CFTR) with indicated reagents. N=1 donor. PG-01 is a potentiator used along with F&I to increase Cl^− transport.
as §1, with “digestion.” for “digestion. Permeable membrane inserts (0.6 cm^2 Millipore-PCF, 0.33 cm^2 Costar-Polyester) pre-coated with human placental collagen (IV, Sigma) were seeded with freshly dissociated epithelia.”
Transepithelial Cl^− current measurements were made in Ussing chambers about 2 weeks post-seeding (Itani, 0. A. et al. Human cystic fibrosis airway epithelia have reduced Cl− conductance but not increased Na+ conductance. Proc. Natl. Acad. Sci. USA 108, 10260-10265 (2011)). […] Transepithelial Cl^− current was measured under short-circuit current conditions. […] After measuring baseline current, the transepithelial current (It) response to sequential apical addition of 100 μM amiloride (Amil), 100 μM 4,4′-diisothiocyanoto-stilbene-2,2′-disulfonic acid (DIDS), 4.8 mM [Cl^−], 10 μM forskolin and 100 μM 3-isobutyl-1-methylxanthine (IBMX), and 100 μM GlyH-101 was measured. […]

Substance	CFTR-ΔF508 mRNA and protein (CFTR-ΔF508 [1])	CFTR-mediated Cl^− transport (CFTR-ΔF508 [2])
SIN3A DsiRNA: Dicer-substrate siRNA against SIN3A, sense SEQ ID NO: 6, antisense SEQ ID NO: 7 (sense GCGAUACAUGAAUUCAGAUACUACC; antisense GGUAGUAUCUGAAUUCAUGUAUCGCUC; chemistry not given here)	increased	restored
miR-138 mimic: synthetic modified RNA duplex, sense SEQ ID NO: 4, antisense SEQ ID NO: 5, showing miR-138-like activity	increased	restored

Reference: US20150045410A1, “METHOD OF REGULATING CFTR EXPRESSION AND PROCESSING” (University of Iowa Research Foundation, priority 2012, published 2015)
